In patent publication US20220323408A1, “COMPOSITION USED FOR COMBATING METABOLIC DISEASES AND USES OF COMPOSITION” (Institute of Zoology, Chinese Academy of Sciences, priority 2019, published 2022):

Tests used:
[1] = test system: HFD (high-fat diet)-induced obesity and insulin resistance; details: C57BL/6J mice; cited from earlier work
pancreatic beta cells = details: by reducing PGE2-mediated β-cell apoptosis; cited from earlier work
[2] = test system: diet-induced obesity (DIO) male mice; assay: Body weight change in diet-induced obesity (DIO) mice, 10 days; type: in vivo; details: 30 mg/kg A alone or 5 mg/kg B alone per day i.p.
Procedure: In addition, the control group and the experimental group of the present invention all adopt intraperitoneal injections in the process. The injection volume starts at 4 μl/g of body weight and can be adjusted according to the dose, in which the therapeutic agent A in the experimental group (aspirin (trade name Aspirin) is used in the following examples) is diluted in PBS to a dose between 0.3 mg/kg and 120 mg/kg of body weight, the therapeutic agent B (trimetazidine (trade name Trimetazidine) is used in the following examples) is diluted in PBS to a dose between 0.05 mg/kg and 500 mg/kg of body weight. In the control group, the same amount of the therapeutic agent A or the same amount of the therapeutic agent B alone is usually used, or only the same amount of PBS solvent is used as a blank control. Twenty 6-week-old diet-induced obesity (Jackson Lab's Diet-Induced Obese, DIO) male mice with similar physical status were selected and then divided into four groups, and the number of mice in each group was 5. […] The body weight of each mouse was recorded daily.

diabetic DIO mice [3] = assay: Serum indicators of hyperlipidemia, fatty liver and nitrogen metabolism in diabetic DIO mice; type: in vivo; details: 4 weeks, 30 mg/kg A and/or 5 mg/kg B per day, vs blank control group 3
Procedure: Subsequent tests were performed on each group of mice that had completed the treatment of Example 8. Examples 9 and 10 detected two indicators related to obesity and hyperlipidemia: total cholesterol and LDL-cholesterol; Example 11 detected alanine aminotransferase (ALT), an indicator related to fatty liver disease; and Examples 12 and 13 detected two indicators related to nitrogen metabolism: albumin/globulin ratio and total protein.

[4] = test system: primary human skeletal muscle cells induced insulin resistance; assay: Western blot of primary human skeletal muscle cells with induced insulin resistance, 7 days; type: cell-based; details: palmitic acid + TNFα 7 days, 100 mg/L A and/or 2 mg/L B on day 4, vs control group 3; for insulin sensitivity indicator phospho-Akt / insulin sensitivity indicator phospho-S6 / myosin heavy chain (MHC): single agents comparably weak
Procedure: In vitro human primary skeletal muscle cells were used in the experiment, the cells were divided into six groups: for control group 1, the same amount of DMSO solvent was administered for 7 days as a blank control; for control group 2, the same amount of bovine serum albumin (BSA) was administered for 7 days as a fat solvent control; for control group 3, palmitic acid (Pal) and TNFα were administered for 7 days as a high-fat and inflammation-induced insulin resistance control; for control group 4, palmitic acid (Pal) and TNFα were administered for 7 days and 100 mg/L of therapeutic agent A was administered on day 4; for control group 5, palmitic acid (Pal) and TNFα were administered for 7 days and 2 mg/L of therapeutic agent B was administered on day 4; for the experimental group, palmitic acid (Pal) and TNFα were administered for 7 days and 100 mg/L of therapeutic agent A and 2 mg/L of therapeutic agent B were administered on day 4; afterwards, protein Western blot analysis was performed on each group of samples, as shown in FIG. 47.

[5] = test system: p38 and AMPK signaling pathways; assay: Western blot of in vitro human primary skeletal muscle cells over 24 hours; type: cell-based; details: 100 mg/L A and/or 2 mg/L B, single agents vs DMSO control, weaker or slower than A+B
Procedure: In vitro human primary skeletal muscle cells were used in the test, the cells were divided into four groups, and each group had six time points. For the experimental group, 100 mg/L of therapeutic agent A and 2 mg/L of therapeutic agent B were administered; for the control group 1, 100 mg/L of therapeutic agent A was administered; for the control group 2, 2 mg/L of therapeutic agent B was administered; and for the control group 3, the same amount of DMSO solvent was used as a blank control. The experiment was conducted 24 hours in total.

diabetic DIO mice [6] = assay: Body weight change in diabetic DIO mice, 4 weeks; type: in vivo; details: 30 mg/kg A alone or 5 mg/kg B alone per day
[7] = LC-MS analysis of mouse serum 1 hour after administration; type: in vivo; details: mice of control group 1 (30 mg/kg A); serum 1 hour later; LC-MS vs blank control group 3
Procedure: Mice were grouped and administered according to the same method as in Example 8, except that serum samples from each group of mice were subjected to liquid phase mass spectrometry (LC-MS, Waters XBridge C18 column and Xevo G2-XS) analysis 1 hour later, and the most prominent small molecule markers were taken out, as shown in FIG. 51.

[8] = long-term administration (3 to 24 hours)
[9] = short-term administration (within 60 minutes)

## COc1ccc2c(c1)c(CC(=O)O)c(C)n2C(=O)c1ccc(Cl)cc1 [Indomethacin]
[1]
  HFD (high-fat diet)-induced obesity: prevent
  HFD-induced insulin resistance: prevent

## CS(=O)(=O)Nc1ccc([N+](=O)[O-])cc1OC1CCCCC1 [NS-398]
Pancreatic beta cells
  β-cell dysfunction: reverse

## CC(=O)Oc1ccccc1C(=O)O [therapeutic agent A, aspirin]
[2]
  effect on the body weight: almost no significant effect
Diabetic DIO mice [3]
  LDL-cholesterol: neither therapeutic agent A in control group 1 nor therapeutic agent B in control group 2 used alone was able to achieve significant therapeutic or restorative effects
  alanine aminotransferase (ALT): neither therapeutic agent A in control group 1 nor therapeutic agent B in control group 2 used alone was able to achieve significant therapeutic or restorative effects
  albumin/globulin ratio: neither therapeutic agent A in control group 1 nor therapeutic agent B in control group 2 used alone was able to achieve significant therapeutic or restorative effects
  total cholesterol: neither therapeutic agent A in control group 1 nor therapeutic agent B in control group 2 used alone was able to achieve significant therapeutic or restorative effects
  total protein: neither therapeutic agent A in control group 1 nor therapeutic agent B in control group 2 used alone was able to achieve significant therapeutic or restorative effects
[4]
  cellular senescence indicator H3K9me3: can down-regulate
  insulin sensitivity indicator phospho-Akt: can also up-regulate
  insulin sensitivity indicator phospho-S6: can also up-regulate
  myosin heavy chain (MHC): can also up-regulate
[5]; [8]
  PGC1a: could also down-regulate
  phospho-ACC: could also down-regulate
  phospho-p38: could also down-regulate
[5]; [9]
  PGC1a: could also up-regulate
  phospho-ACC: could also up-regulate
  phospho-AMPK: could also up-regulate
  phospho-p38: could also up-regulate
Diabetic DIO mice [6]
  effect on the body weight: almost no obvious effect
[7]
  formation of salicylate derivatives in serum: can effectively form a variety of salicylate derivatives in serum

## COc1ccc(CN2CCNCC2)c(OC)c1OC [therapeutic agent B, trimetazidine]
[2]
  effect on the body weight: almost no significant effect
Diabetic DIO mice [3]
  LDL-cholesterol: neither therapeutic agent A in control group 1 nor therapeutic agent B in control group 2 used alone was able to achieve significant therapeutic or restorative effects
  alanine aminotransferase (ALT): neither therapeutic agent A in control group 1 nor therapeutic agent B in control group 2 used alone was able to achieve significant therapeutic or restorative effects
  albumin/globulin ratio: neither therapeutic agent A in control group 1 nor therapeutic agent B in control group 2 used alone was able to achieve significant therapeutic or restorative effects
  total cholesterol: neither therapeutic agent A in control group 1 nor therapeutic agent B in control group 2 used alone was able to achieve significant therapeutic or restorative effects
  total protein: neither therapeutic agent A in control group 1 nor therapeutic agent B in control group 2 used alone was able to achieve significant therapeutic or restorative effects
[4]
  cellular senescence indicator H3K9me3: cannot achieve the same effect
  insulin sensitivity indicator phospho-Akt: can also up-regulate
  insulin sensitivity indicator phospho-S6: can also up-regulate
  myosin heavy chain (MHC): can also up-regulate
[5]; [8]
  PGC1a: could also down-regulate
  phospho-ACC: could also down-regulate
  phospho-p38: could also down-regulate
[5]; [9]
  PGC1a: could also up-regulate
  phospho-ACC: could also up-regulate
  phospho-AMPK: could also up-regulate
  phospho-p38: could also up-regulate
Diabetic DIO mice [6]
  effect on the body weight: almost no obvious effect
